Columns and labels:
[1] = NOVARTIS: Cytotoxicity against human hepatocellular carcinoma cell line (Huh7); type: toxicity, cell-based, Huh-7; details: Huh7 cells (hepatocellular carcinoma cell line)
Plasmodium falciparum [2] = assay: NOVARTIS: Inhibition of Plasmodium falciparum W2 (drug-resistant) proliferation in erythrocyte-based infection assay; type: functional, organism-based
Plasmodium falciparum [3] = assay: NOVARTIS: Inhibition of Plasmodium falciparum 3D7 (drug-susceptible) proliferation in erythrocyte-based infection assay; type: functional, organism-based; details: Plasmodium falciparum, 3D7
[4] = Plasmodium falciparum, W2, read-out: EC50

Structure (SMILES)	CC50 [1]	EC50 (Plasmodium falciparum [2]; [4])	EC50 (Plasmodium falciparum [3])	EC50 (Plasmodium falciparum [2])
CC(C)CNC(=O)c1cnc(NCCCN2CCCCC2C)nc1NCCc1ccccc1 (configuration not stated)	> 10 µM	1.57 µM	0.374 µM	
CCOC(=O)c1ccc2c(c1)[C@@H]1C=CC[C@@H]1[C@H](c1ccc(OC)c([N+](=O)[O-])c1)N2	> 100 µM	0.376 µM	0.39 µM	
CCOC(=O)c1cnc2ccc(OCC)cc2c1NCC1CCCN1CC (configuration not stated)	> 10 µM	1.15 µM	> 0.74 µM	
COc1ccc(NC(=O)C2c3ccccc3C(=O)N(CC(C)C)C2c2cccs2)cc1OC (configuration not stated)	> 100 µM	0.0688 µM	0.076 µM	
Cc1cccc2c1[nH]c1nc(SCC(C)C)nnc12	> 100 µM	0.873 µM	1.48 µM	
Cc1n(C)c2ccccc2[n+]1CC(=O)c1ccccc1	> 100 µM	0.547 µM	0.114 µM	
CC(C)CC(NC(=O)C(=Cc1ccco1)NC(=O)c1ccccc1)C(=O)OCc1ccccc1 (configuration not stated)	> 100 µM	1.73 µM	> 12.5 µM	
COc1ccccc1Nc1nc(NCC2CCCO2)c2ccccc2n1 (configuration not stated)	29.4 µM	1.57 µM	1.04 µM	
COc1ccc(-c2noc(N3CCc4ccccc4C3)n2)cc1	> 10 µM	0.125 µM	0.2 µM	
CCOC(=O)c1[nH]c2ccc(OC)cc2c1N=NN(C)C	68.6 µM	0.966 µM	0.447 µM	
CCOc1ccc(OCc2nnc(S)n2N)cc1	> 10 µM	> 0.752 µM	> 1.25 µM	
O=C(Nc1cccc(Cl)c1)c1cc2ccccc2cc1O	7.89 µM	0.229 µM	0.545 µM	
COC(=O)c1ccc(N2C(=O)C3C(C2=O)C2(c4ccccc4)C(=O)C3(c3ccccc3)C(c3ccc(OC)cc3)=C2c2ccc(OC)cc2)cc1 (configuration not stated)	> 100 µM	> 12.5 µM	4.83 µM	
OCCNCCNCc1ccc2[nH]c3ccccc3c2c1	28.9 µM	7.6 µM	0.291 µM	
COCC(=O)Oc1ccccc1-c1nc2cc(C)ccn2c1NC(C)(C)CC(C)(C)C	> 6.2 µM	< 0.00915 µM	0.799 µM	
Oc1ccc(-c2ccc3c(c2)OCO3)cc1CNC12CC3CC(CC(C3)C1)C2	> 100 µM	0.225 µM	0.832 µM	
Cc1cc(Cl)ccc1OC(C)C(=O)N1CCc2ccccc21 (configuration not stated)	> 100 µM	0.812 µM	0.632 µM	

Structure (SMILES)	CC50 [1]	EC50 (Plasmodium falciparum [2]; [4])	EC50 (Plasmodium falciparum [3])	EC50 (Plasmodium falciparum [2])
CCc1ccc(Nc2cc(C)nc3nc(C)nn23)cc1	> 100 µM	0.768 µM	0.574 µM	
CN(C)c1ccc(/C=C/c2cc(/C=C/c3ccc(N(C)C)cc3)[n+]3ccccc3n2)cc1	> 10 µM	0.811 µM	1.34 µM	
Cc1cc(F)ccc1NC(=O)C(C)n1c2ccccc2c2nc(=O)cc(C)n21 (configuration not stated)	> 100 µM	0.127 µM	0.283 µM	
CCOc1ccc(-c2cn3c(n2)sc2cc(C(=O)NCCN(CC)CC)ccc23)cc1	47.5 µM	1.27 µM	0.766 µM	
O=C(CCl)NCCCCNc1ccnc2cc(Cl)ccc12	> 10 µM		> 0.811 µM	No fit
Cc1cc(N2CCC(N(C)C3CCCC3)CC2)nc2cc(O)ccc12	25.5 µM	1.29 µM	0.312 µM	
C[N+](C)(C)c1nc(N2CCOCC2)nc(N(c2ccccc2)c2ccccc2)n1	> 10 µM	0.179 µM	0.0632 µM	
COc1ccc(/C=C2/SC(=Nc3ccccc3OC)NC2=O)cc1	19.8 µM	0.0384 µM	0.0836 µM	
CC(=O)Nc1sc(C)c(C)c1N=Nc1ccc(S(=O)(=O)O)cc1	> 10 µM	> 1.18 µM	1.15 µM	
C/C=C/[P+](c1ccccc1)(c1ccccc1)c1ccccc1	2.81 µM	0.13 µM	0.0528 µM	
COC1=C(Nc2cccc(C(F)(F)F)c2)C(=O)c2ccccc2C1=O	> 100 µM	0.114 µM	0.263 µM	
COc1ccccc1CNC(=O)CCC1N=C2c3ccccc3N=C(SCC(=O)Nc3ccc(F)cc3)N2C1=O (configuration not stated)	> 100 µM	2.51 µM	5.29 µM	
COc1ccc(CNC2CCN(Cc3ccccc3)CC2)cc1OCc1ccccc1	> 10 µM	0.0279 µM	1.03 µM	
Nc1nc(N)nc(C(c2ccccc2)c2ccccc2)n1	> 13.2 µM	> 1.25 µM	1.09 µM	
CCCSCCCNC(=O)c1oc2c(c1C)-c1[nH]ncc1CC2	> 10 µM	> 0.725 µM	> 1.15 µM	
CC1CC(=Cc2ccncc2)C(=O)C(=Cc2ccncc2)C1 (configuration not stated)	7.77 µM	0.736 µM	1.63 µM	
COc1ccc(-c2cn(-c3ccc(OC)cc3)c(SCC(=O)Nc3ccccc3)n2)cc1	> 100 µM	> 11.2 µM	> 11.2 µM	

Source: ChEMBL document CHEMBL1156829 (Proc Natl Acad Sci U S A, 2008)
